Here are results for 33 compounds from PubChem BioAssay (NCI).

SMILES strings stand for the structures.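 Grown in 96-well plates, cells were treated for 48 hours with each compound at five concentrations. Insufficient inhibition: endpoint recorded as highest concentration tested. GI50 is the concentration that inhibits growth by half. At the TGI there is no net growth.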

Holding throughout (assay): growth of human tumour cells (NCI), 48 h
In assay [1] the test system is UACC-257 melanoma.
Assay [2] has as its system SR leukemia.
For assay [3], the system named is UACC-62 melanoma.
Assay [4] deals with U251 CNS.
In assay [5] the test system is A549 NSCLC.
The subject of assay [6] is SF-295 CNS.
Assay [7] deals with OVCAR-8 ovarian.
Assay [8] concerns OVCAR-4 ovarian.
For assay [9], the system named is MDA-MB-231 breast.
Assay [10] relates to T-47D breast.

With `Nc1ncnc2c1ncn2CCCC(c1ccccc1)P(=O)(O)O` (stereo unspecified), the TGI in assay [1], in assay [2], in assay [3], in assay [4], in assay [5] and in [6] was greater than 100 µM each time. This compound also showed a TGI in assay [7] greater than 100 µM.
On to `NC(=O)COc1c(Br)cc(Br)cc1Br`, for which the TGI in [8], in [1], in assay [2], in [3], in [4] and in [5] was greater than 100 µM throughout. In addition, the TGI in assay [6] and in assay [7] was greater than 100 µM each time.
Consider `N/C(=N\NC(=O)c1nc2ccccc2s1)c1ccccn1`, for which the TGI in assay [9] is greater than 100 µM; in [10] it was greater than 100 µM; in assay [1], greater than 79.8 µM; in [3] it was 19.5 µM; in [4], greater than 60.9 µM; in assay [5], greater than 52.7 µM. Moreover, the values for the TGI in assay [6] and in assay [7] were greater than 100 µM and greater than 47.2 µM, respectively.
With `C[N+](C)(C)CCOC(=O)/C=C/c1cnc[nH]1`, the TGI in assay [8], in [1], in assay [3], in assay [4], in [5] and in assay [6] was greater than 500 µM throughout. In assay [7], this compound displayed a TGI greater than 500 µM.
With `Nc1ncnc2c1sc(=S)n2-c1ccccc1`, the TGI in [8], in assay [1], in assay [2], in assay [3], in assay [4] and in [5] was greater than 100 µM in each case. Further, the TGI in [6] and in [7] was greater than 100 µM throughout.
Regarding `COc1cccc2c1C(=O)c1c(O)c3c(c(O)c1C2=O)C[C@@](O)(C(=O)CN1CCOCC1)C[C@@H]3OC1CC(N)C(O)C(C)O1` (stereo partly specified), the TGI in assay [8] is 69.6 µM; in [3] it was 15.7 µM; in [4], greater than 100 µM; in assay [5], 48.6 µM; in assay [6], 39.3 µM; in [7], 89.5 µM. For the same compound, the GI50 in assay [1] was 11.3 µM.
In the case of `COC(=O)[C@H]1[C@@H](O)[C@@]2(O)c3c(OC)cc(OC)cc3O[C@@]2(c2ccc3c(c2)OCO3)[C@@H]1c1ccccc1`, the TGI in assay [9] was 0.211 µM; in [10] it was greater than 10.8 µM; in assay [8], greater than 10.1 µM; in [1] it was greater than 50 µM; in assay [3], greater than 50 µM; in [4], greater than 50 µM. Moreover, the TGI in [5] was 0.5 µM; in assay [6] it was 0.143 µM; in assay [7] it was greater than 50 µM.
With `O=C(O)CN1CCCC(Cc2c[nH]c3ccccc23)C1` (stereo unspecified), the TGI in assay [9], in [8], in assay [1], in [3], in [5] and in assay [6] was greater than 100 µM in each case. The compound also registered a TGI in [7] greater than 100 µM.
`COc1cc(N)c2[nH]c3c(C)ccc(C)c3c2c1`: the TGI in [8], in assay [1], in assay [2], in [5], in assay [6] and in [7] was greater than 100 µM in each case.
`COc1ccc(C2S/C(=C\c3cccc(OC)c3)C(=O)N2NC(=O)Cc2ccccc2)cc1` (stereo unspecified): the TGI in [8], in assay [1], in [2], in assay [3], in assay [4] and in assay [5] was greater than 100 µM throughout. The TGI in [6] and in [7] was greater than 100 µM in each case.
With `COC(=O)CCCC1(CCCC(=O)OC)CCCCCCCCC(CCCC(=O)OC)(CCCC(=O)OC)C(=O)C1=O`, the TGI in [10] was greater than 100 µM; in [8] it was 54.7 µM; in [1] it was greater than 100 µM; in [2] it was 85.5 µM; in assay [3] it was 39.5 µM; in assay [4], 40.7 µM. For the same compound, the TGI in assay [5] is 29.9 µM; in [6], greater than 100 µM; in [7], greater than 100 µM.
For the compound `CCCCCCCCCC(O)CC(=O)c1c(O)cccc1O` (stereo unspecified), the TGI in assay [9] was 46.5 µM; in [10], 71.5 µM; in assay [8] it was 35.2 µM; in [1] it was 38.7 µM; in assay [4] it was greater than 100 µM; in assay [5] it was 55.1 µM. Also, the TGI in [6] worked out at 39.1 µM; in assay [7], 38.6 µM.
On to `Fc1ccc2[nH]cc(-c3nc(-c4c[nH]c5ccncc45)cs3)c2c1`, for which the GI50 in assay [1] is 1.91 µM; in assay [3] it was 1.72 µM; in [6], 1.68 µM. In addition, the TGI in assay [1] came to 3.58 µM; in [3] it was 3.2 µM; in assay [6], 3.1 µM.
Take `Cc1c(OCCCOc2ccc3c(=O)cc(-c4ccccc4)oc3c2C)ccc2c(=O)cc(-c3ccccc3)oc12`: the TGI in assay [1], in [2], in assay [3], in assay [4], in [5] and in assay [6] was greater than 100 µM throughout. Also, the TGI in [7] was greater than 100 µM.
With `COc1cc2c(c(O)c1C)C(=O)CC(c1ccccc1)O2` (stereo unspecified), the TGI in assay [8] was greater than 10 µM; in assay [1], greater than 100 µM; in [3] it was greater than 100 µM; in assay [4], greater than 100 µM; in [5], greater than 100 µM; in [6], greater than 10 µM. Moreover, in assay [7], the TGI was greater than 100 µM.
Turning to `O=C(NNS(=O)(=O)c1ccc(Br)cc1)c1ccc(Cl)cc1NC(=O)C12CC3CC(CC(C3)C1)C2`, the TGI in [10] is greater than 100 µM; in assay [8], 23.8 µM; in assay [1], 26.9 µM; in assay [2], 35.5 µM; in [3] it was 25.6 µM; in [4], 22.7 µM. The TGI in [5] was determined as 21.4 µM; in [6], 29.3 µM; in assay [7], 31.9 µM.
Consider `Clc1ccc2nc3n[nH]c(Cl)c3nc2c1`, for which the TGI in [9], in assay [10], in assay [8], in [1], in assay [3] and in assay [4] was greater than 100 µM each time. In addition, the TGI in assay [5], in [6] and in [7] was greater than 100 µM throughout.
`O=C(OCC1CCCN2CCCCC12)c1cccnc1` (stereo unspecified): the TGI in assay [9], in [10], in [8], in assay [1], in assay [3] and in assay [4] was greater than 100 µM throughout. Besides, the TGI in [5], in [6] and in [7] was greater than 100 µM each time.
For the compound `C/C(=N\NC(=O)CC#N)C(CN1CCCCC1)C(c1ccccc1)c1c(O)c2ccccc2oc1=O` (stereo unspecified), the TGI in [9], in assay [8], in assay [1], in assay [3], in assay [4] and in [5] was greater than 100 µM each time. Moreover, the TGI in assay [7] is greater than 100 µM.
On to `C[N+](C)=c1ccc2nc3c(ccc4ccccc43)oc-2c1`, for which the TGI in assay [8] is 26.3 µM; in assay [1] it was 16.4 µM; in assay [2], greater than 100 µM; in [3], 16.3 µM; in assay [4], 29.5 µM; in assay [5], 37.1 µM. For the same compound, the TGI in [6] was 29 µM; in [7], 26 µM.
For the compound `CC1(C)OC2CC3COC(=O)C3CC2O1` (stereo unspecified), the TGI in assay [8], in assay [1], in assay [2], in [3], in assay [4] and in [5] was greater than 100 µM each time. The TGI in assay [6] and in assay [7] was greater than 100 µM throughout.
As for `C/C=C/c1cc2c(c(=O)o1)C(=O)[C@@H](O)[C@H](C)O2`, the TGI in [8] came to 29.7 µM; in assay [1] it was 31.8 µM; in [3] it was 34.1 µM; in [4] it was 32.9 µM; in assay [5], 34.3 µM; in [6] it was 41.6 µM. This compound also returned a TGI in [7] of 35 µM.
For `CC1(C)Oc2ccc3c(=O)cc(-c4cccs4)oc3c2C1C(=O)O` (stereo unspecified), the TGI in [9], in assay [10], in assay [1], in assay [2], in [4] and in assay [5] was greater than 100 µM throughout. In addition, the TGI in assay [6] and in assay [7] was greater than 100 µM in each case.
As for `Nc1ccc2nc(Nc3ccc(Cl)c(Cl)c3)cnc2c1`, the TGI was 60.4 µM in [8]; 71 µM in [1]; 35.5 µM in [2]; 44.2 µM in assay [4]; 41.9 µM in assay [5]; greater than 100 µM in [7].
As to `COC1=CC(=O)C2C(C1=O)[C@@H]1c3ccccc3OC(C)(C)[C@H]21` (stereo partly specified), the TGI in [8] is 32.4 µM; in assay [1], greater than 100 µM; in assay [4], greater than 100 µM; in [5], greater than 100 µM; in [6] it was greater than 100 µM; in assay [7] it was 42.2 µM.
Turning to `CCCCCCCCCCCCCCCCNCC(O)CN` (stereo unspecified), the TGI was determined as 12.1 µM in assay [8]; 23.7 µM in assay [1]; 17 µM in [3]; 6.26 µM in [4]; 10.2 µM in assay [5]; 6.93 µM in [6]. This compound also gave a TGI in assay [7] of 12.3 µM.
Turning to `COC(=O)[C@@H]1[C@H](O)CCC2=C(CC(=O)c3ccoc3)[C@H](C)CC[C@]21C`, the TGI in [9], in assay [8], in [1], in [3], in assay [4] and in assay [5] was greater than 50 µM each time. For the same compound, the TGI in [6] and in assay [7] was greater than 50 µM throughout.
`CCCCOc1c(C(=O)O)cc(Br)cc1C(=O)O`: the TGI in assay [9], in assay [10], in assay [8], in [1], in [4] and in assay [5] was greater than 100 µM throughout. The TGI in assay [6] and in assay [7] was greater than 100 µM each time.
As to `Cc1c(-c2coc(-c3ccccc3)n2)c(=O)n(-c2ccccc2)n1C`, the TGI in assay [8], in assay [1], in assay [2], in assay [4], in assay [5] and in assay [6] was greater than 100 µM in each case. In assay [7], this compound displayed a TGI greater than 100 µM.
Take `N#CNC(=NCc1ccccc1)NCCc1c[nH]c2ccccc12`: the TGI in [8], in assay [1], in [2], in assay [3], in assay [4] and in assay [5] was greater than 100 µM in each case. Also, the TGI in assay [6] and in assay [7] was greater than 100 µM throughout.
Take `C[C@]12C(=O)C=CCC1=CC[C@@H]1[C@@H]2[C@H]2CC3(O)C(=O)O[C@@]4(C)[C@H]5C[C@@]6(C)[C@@H]7[C@@]2(O)[C@]1(OC[C@H]6C(=O)O5)O[C@]734` (stereo partly specified): the TGI is greater than 100 µM in [9]; greater than 100 µM in assay [8]; greater than 100 µM in [1]; 75.2 µM in assay [2]; greater than 100 µM in [3]; greater than 100 µM in assay [4]. The TGI in assay [5], in assay [6] and in assay [7] was greater than 100 µM each time.
As to `N=c1n(CC(=O)NC23CC4CC(CC(C4)C2)C3)c2ccccc2n1CC(=O)NC12CC3CC(CC(C3)C1)C2`, the TGI in assay [8] was found to be 3.38 µM; in assay [1] it was 3.17 µM; in [2], 4.51 µM; in assay [3] it was 3.45 µM; in assay [4], 3.02 µM; in [6], 3.52 µM. The same compound displayed a TGI in assay [7] of 3.13 µM.
As for `N=S(=O)(c1ccccc1)c1ccccc1`, the TGI in assay [8], in assay [1], in [2], in assay [3], in assay [4] and in assay [5] was greater than 100 µM each time. For the same compound, the TGI in assay [6] and in assay [7] was greater than 100 µM throughout.
